# Assay results as given in patent publication US8415351B2 (priority 2007, dated 2013).
# Legend:
# [1] = molecular target: T1, HCV polymerase 1A (Δ21 NS5B, H77) (Hepatitis C virus genotype 1a, UniProt P27958); experiment: biochemical; conditions: IC50 1a
# T1 construct: 20 to 50 nM Δ21 NS5B
# How it was run: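 Radiometric assay with Δ21 NS5B (H77): 20 μM CTP, 20 μM ATP, 1 μM ^3H-UTP, 5 nM template RNA, 2–4 h at room temperature. RNA precipitated with spermine, filter-captured and counted. IC50 from non-linear fit of retained cpm vs inhibitor concentration (tight-binding equation).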
# [2] = molecular target: T2, HCV polymerase 1B (Δ21 NS5B, BK) (Hepatitis C virus genotype 1b, UniProt P26663); experiment: biochemical
# T2 construct: 20 to 50 nM Δ21 NS5B
# T2 sequence (P26663 2420-2989, stated change not applied): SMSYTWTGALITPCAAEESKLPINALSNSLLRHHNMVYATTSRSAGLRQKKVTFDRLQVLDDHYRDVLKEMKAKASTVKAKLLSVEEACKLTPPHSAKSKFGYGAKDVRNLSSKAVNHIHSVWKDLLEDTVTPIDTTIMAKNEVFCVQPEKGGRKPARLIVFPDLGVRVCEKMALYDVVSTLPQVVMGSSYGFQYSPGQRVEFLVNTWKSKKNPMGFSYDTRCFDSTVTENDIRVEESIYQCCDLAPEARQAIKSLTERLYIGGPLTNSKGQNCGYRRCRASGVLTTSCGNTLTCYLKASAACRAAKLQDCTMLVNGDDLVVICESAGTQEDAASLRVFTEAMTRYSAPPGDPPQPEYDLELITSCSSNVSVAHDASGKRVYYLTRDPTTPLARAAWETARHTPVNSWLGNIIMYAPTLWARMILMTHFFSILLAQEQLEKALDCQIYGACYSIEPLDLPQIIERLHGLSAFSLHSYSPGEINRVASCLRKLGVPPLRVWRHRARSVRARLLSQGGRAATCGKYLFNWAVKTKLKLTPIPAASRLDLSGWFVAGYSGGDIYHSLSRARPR
# How it was run: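 Δ21 NS5B (genotype 1b, BK […]) preincubated 15 min RT with inhibitor, 2 mM MnCl2, pH 7.4, 60–125 μM GTP; started with 20 μM CTP/ATP, 1 μM 3H-UTP, 5 nM template RNA, run 2–4 h RT. Spermine-precipitated RNA filter-captured, scintillation counted; IC50 from tight-binding (Morrison) fit.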
# [3] = system: genotype 1a-H77 subgenomic replicon cell line; experiment: microbe, parasite or virus in culture; type: cell-based, HCV; conditions: Hepatitis C virus, read-out: EC50 1a
# [4] = system: genotype 1b-Con1 subgenomic replicon cell line; experiment: microbe, parasite or virus in culture; type: cell-based, HCV; conditions: Hepatitis C virus, read-out: EC50 1b
# T1 sequence (P27958 2421-2990, stated change not applied): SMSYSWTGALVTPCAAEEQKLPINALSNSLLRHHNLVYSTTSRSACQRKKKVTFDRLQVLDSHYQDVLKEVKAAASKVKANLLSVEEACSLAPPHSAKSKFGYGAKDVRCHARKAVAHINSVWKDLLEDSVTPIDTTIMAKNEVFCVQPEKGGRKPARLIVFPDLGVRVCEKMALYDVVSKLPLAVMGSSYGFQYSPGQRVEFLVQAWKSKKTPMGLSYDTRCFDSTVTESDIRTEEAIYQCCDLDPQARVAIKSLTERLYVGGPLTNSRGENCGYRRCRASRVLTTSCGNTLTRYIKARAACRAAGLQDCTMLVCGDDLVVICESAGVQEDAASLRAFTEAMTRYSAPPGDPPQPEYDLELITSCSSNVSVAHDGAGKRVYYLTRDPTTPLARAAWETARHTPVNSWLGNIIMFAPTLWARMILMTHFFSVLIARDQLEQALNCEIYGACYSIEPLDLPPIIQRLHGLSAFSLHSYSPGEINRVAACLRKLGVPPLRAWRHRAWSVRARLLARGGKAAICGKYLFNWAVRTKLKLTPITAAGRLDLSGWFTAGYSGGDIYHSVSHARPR
SMILES,IC50 [1] [nM],IC50 [2] [nM],EC50 [3] [nM],EC50 [4] [nM]
"CC(C)(C)c1cc(N2CCC(=O)NC2=O)cc(C(=O)Nc2ccc(CC(=O)O)cc2)c1O [IA-L3-1.15, 2-(4-(3-tert-butyl-5-(2,4-dioxotetrahydropyrimidin-1(2H)-yl)-2-hydroxybenzamido)phenyl)-acetic acid]",> 1000,100 to 1000,> 1000,> 1000
"COc1c(C(=O)Nc2ccc(CC(=O)O)cc2)cc(N2CCC(=O)NC2=O)cc1C(C)(C)C [IA-L3-1.30, 2-(4-(3-tert-butyl-5-(2,4-dioxotetrahydropyrimidin-1(2H)-yl)-2-methoxybenzamido)phenyl)-acetic acid]",> 1000,100 to 1000,> 1000,> 1000
"COc1c(CC(=O)c2ccc(NS(C)(=O)=O)cc2)cc(N2CCC(=O)NC2=O)cc1C(C)(C)C [IA-L12-1.1, N-(4-(2-(3-tert-butyl-5-(2,4-dioxotetrahydropyrimidin-1(2H)-yl)-2-methoxyphenyl)acetyl)phenyl)methanesulfonamide]",10 to 100,10 to 100,100 to 1000,10 to 100
"COc1c(C#Cc2ccc(NS(C)(=O)=O)c(F)c2)cc(N2CCC(=O)NC2=O)cc1C(C)(C)C [IA-L2-1.13, N-(4-((3-tert-butyl-5-(2,4-dioxotetrahydropyrimidin-1(2H)-yl)-2-methoxyphenyl)ethynyl)-2-fluorophenyl)methanesulfonamide]",< 10,< 10,100 to 1000,10 to 100
"CC(C)(C)c1cc(N2CCC(=O)NC2=O)cc(NC(=O)c2ccc(CS(C)(=O)=O)cc2)c1O [IA-L4-1.4, N-(3-tert-butyl-5-(2,4-dioxotetrahydropyrimidin-1(2H)-yl)-2-hydroxyphenyl)-4-(methylsulfonylmethyl)benzamide]",> 1000,> 1000,> 1000,> 1000
"CCNC(=O)CN1C(=O)CCN(c2cc(C(=O)Nc3ccc(N(CC(=O)NCC)S(C)(=O)=O)cc3)c(OC)c(C(C)(C)C)c2)C1=O [IA-L3-1.115, 3-tert-butyl-5-(3-(2-(ethylamino)-2-oxoethyl)-2,4-dioxotetrahydropyrimidin-1(2H)-yl)-N-(4-(N-(2-(ethylamino)-2-oxoethyl)methylsulfonamido)phenyl)-2-methoxybenzamide]",> 1000,> 1000,> 1000,> 1000
"COc1c(-c2ccc(/C=N/NS(C)(=O)=O)cc2)cc(N2CCC(=O)NC2=O)cc1C(C)(C)C [IA-L0-1.1, (E)-N′-((3′-tert-butyl-5′-(2,4-dioxotetrahydropyrimidin-1(2H)-yl)-2′-methoxybiphenyl-4-yl)methylene)methanesulfonohydrazide]",< 10,10 to 100,100 to 1000,< 10
"COc1c(-c2ccc(/C=N/NS(C)(=O)=O)cc2)cc(-n2ccc(=O)[nH]c2=O)cc1C(C)(C)C [IB-L0-1.1, (E)-N′-((3′-tert-butyl-5′-(2,4-dioxo-3,4-dihydropyrimidin-1(2H)-yl)-2′-methoxybiphenyl-4-yl)methylene)methanesulfonohydrazide]",< 10,< 10,10 to 100,10 to 100
"CC(C)(C)c1cc(C(=O)Nc2ccc(NS(C)(=O)=O)cc2)cc(N2CCC(=O)NC2=O)c1 [IA-L3-1.105, 3-tert-butyl-5-(2,4-dioxotetrahydropyrimidin-1(2H)-yl)-N-(4-(methylsulfonamido)phenyl)benzamide]",100 to 1000,10 to 100,> 1000,> 1000
"COc1c(C(=O)Nc2ccc(OCC(N)=O)cc2)cc(N2CCC(=O)NC2=O)cc1C(C)(C)C [IA-L3-1.39, N-(4-(2-amino-2-oxoethoxy)phenyl)-3-tert-butyl-5-(2,4-dioxotetrahydropyrimidin-1(2H)-yl)-2-methoxybenzamide]",> 1000,100 to 1000,> 1000,> 1000
"COc1c(C#Cc2ccc(NS(C)(=O)=O)cn2)cc(-n2ccc(=O)[nH]c2=O)cc1C(C)(C)C [IB-L2-1.8, N-(6-((3-tert-butyl-5-(2,4-dioxo-3,4-dihydropyrimidin-1(2H)-yl)-2-methoxyphenyl)ethynyl)-pyridin-3-yl)methanesulfonamide]",< 10,10 to 100,10 to 100,< 10
"CN(Cc1csc(NC(=O)c2cc(N3CCC(=O)NC3=O)cc(C(C)(C)C)c2O)c1)S(C)(=O)=O [IA-L3-1.95, 3-tert-butyl-5-(2,4-dioxotetrahydropyrimidin-1(2H)-yl)-2-hydroxy-N-(4-((N-methylmethylsulfonamido)methyl)thiophen-2-yl)benzamide]",100 to 1000,10 to 100,> 1000,> 1000
"COc1c(CNc2ccc(NS(C)(=O)=O)cc2)cc(N2CCC(=O)NC2=O)cc1C(C)(C)C [IA-L9-1.4, N-(4-(3-tert-butyl-5-(2,4-dioxotetrahydropyrimidin-1(2H)-yl)-2-methoxybenzylamino)phenyl)methanesulfonamide]",10 to 100,100 to 1000,> 1000,100 to 1000
"COc1c(C(=O)Nc2cc(CN(C(=O)OC(C)(C)C)S(C)(=O)=O)cs2)cc(N2CCC(=O)NC2=O)cc1C(C)(C)C [IA-L3-1.96, tert-butyl (5-(3-tert-butyl-5-(2,4-dioxotetrahydropyrimidin-1(2H)-yl)-2-methoxybenzamido)thiophen-3-yl)methyl(methylsulfonyl)carbamate]",100 to 1000,> 1000,100 to 1000,> 1000
"COc1c(-c2cccc(/C(C)=N/NS(C)(=O)=O)c2)cc(-n2ccc(=O)[nH]c2=O)cc1C(C)(C)C [IB-L0-1.9, (E)-N′-(1-(3′-tert-butyl-5′-(2,4-dioxo-3,4-dihydropyrimidin-1(2H)-yl)-2′-methoxybiphenyl-3-yl)ethylidene)methanesulfonohydrazide]",100 to 1000,100 to 1000,> 1000,> 1000
"CCC(=O)N(c1ccc(NC(=O)c2cc(N3CCC(=O)NC3=O)cc(C(C)(C)C)c2OC)cc1)S(C)(=O)=O [IA-L3-1.70, 3-tert-butyl-5-(2,4-dioxotetrahydropyrimidin-1(2H)-yl)-2-methoxy-N-(4-(N-(methylsulfonyl)propionamido)phenyl)benzamide]",> 1000,> 1000,100 to 1000,10 to 100
"COc1c(-c2ccc3c(c2)CCC3(F)CNS(C)(=O)=O)cc(-n2ccc(=O)[nH]c2=O)cc1C(C)(C)C (centres unmarked) [IB-L0-2.12, N-((5-(3-tert-butyl-5-(2,4-dioxo-3,4-dihydropyrimidin-1(2H)-yl)-2-methoxyphenyl)-1-fluoro-2,3-dihydro-1H-inden-1-yl)methyl)methanesulfonamide]",< 10,10 to 100,10 to 100,< 10
"COc1c(C(=O)Cc2ccc(NS(C)(=O)=O)cc2)cc(N2CCC(=O)NC2=O)cc1C(C)(C)C [IA-L11-1.1, N-(4-(2-(3-tert-butyl-5-(2,4-dioxotetrahydropyrimidin-1(2H)-yl)-2-methoxyphenyl)-2-oxoethyl)phenyl)methanesulfonamide]",10 to 100,10 to 100,100 to 1000,10 to 100
"CC(C)(C)c1cc(N2CCC(=O)NC2=O)cc(C(=O)Nc2ccccc2S(C)(=O)=O)c1O [IA-L3-1.20, 3-tert-butyl-5-(2,4-dioxotetrahydropyrimidin-1(2H)-yl)-2-hydroxy-N-(2-(methylsulfonyl)phenyl)benzamide]",> 1000,10 to 100,> 1000,> 1000
"COc1c(-c2ccc3c(c2)CC=C3CNS(C)(=O)=O)cc(-n2ccc(=O)[nH]c2=O)cc1-c1cccs1 [IB-L0-2.63, N-((6-(5-(2,4-dioxo-3,4-dihydropyrimidin-1(2H)-yl)-2-methoxy-3-(thiophen-2-yl)phenyl)-1H-inden-3-yl)methyl)methanesulfonamide]",10 to 100,10 to 100,100 to 1000,10 to 100
"COc1c(-c2ccc3c(CN(C)S(C)(=O)=O)csc3c2)cc(-n2ccc(=O)[nH]c2=O)cc1C(C)(C)C [IB-L0-2.21, N-((6-(3-tert-butyl-5-(2,4-dioxo-3,4-dihydropyrimidin-1(2H)-yl)-2-methoxyphenyl)benzo[b]thiophen-3-yl)methyl)-N-methylmethanesulfonamide]",10 to 100,10 to 100,100 to 1000,10 to 100
"COc1c(/C=C\c2ccc(NS(C)(=O)=O)cc2)cc(N2CCC(=O)NC2=O)cc1C(C)(C)C [IA-L1-1.10, (Z)-N-(4-(3-tert-butyl-5-(2,4-dioxotetrahydropyrimidin-1(2H)-yl)-2-methoxystyryl)phenyl)methanesulfonamide]",10 to 100,10 to 100,10 to 100,10 to 100
"COc1c(C(=O)Nc2ccc3c(c2)CCC(=O)N3)cc(N2CCC(=O)NC2=O)cc1C(C)(C)C [IA-L3-2.4, 3-tert-butyl-5-(2,4-dioxotetrahydropyrimidin-1(2H)-yl)-2-methoxy-N-(2-oxo-1,2,3,4-tetra hydroquinolin-6-yl)benzamide]",> 1000,> 1000,> 1000,> 1000
